# Data as given in patent US5310881A, “Glycosaminoglycan-modified protein” (Seikagaku Corporation, priority 1990, dated 1994).
# Test system: mouse ischemic foot edema
# Assay: Effect on mouse ischemic foot edema
# Type: in vivo, ddy male mouse
# Settings: given just before ischemia, HA 26.71 mg
# Procedure: A ddy male mouse aged 8 weeks is kept in a keeping device and the right hind leg is tied around with a suture (Brain No. 2). One end of the suture is fixed while a weight of 500 g is suspended from another end of the suture. Thus, ischemia is conducted for a definite period of time. Before the ischemia and 60 minutes thereafter, the thickness of the foot-pad of the animal was measured with slide calipers. Then, the foot-pad is cut and weighed. To a control group, a physiological saline is intravenously administered immediately before the initiation of the ischemia. To test groups, specimen shown in Table 6 was administered 30 minutes before the initiation of the ischemia and immediately before the same. Each group has 5 animals. The catarase used as a specimen was originated from bovine liver. The HA-catalase used was prepared as follows. 10 mg of the HA-catalase of lot No. 120-1 was dissolved in 5.2 ml of a physiological saline and filtered through a membrane of 0.22 μm (Milex GV; mfd. by Nippon Millipore Kogyo K.K.). 1 ml portions of the filtrate were distributed to ampuls to give a preparation for injection. The preparation contained 600 U of the enzyme per ampul.
# The effects were calculated in accordance with the following equations. [formula] It is believed that a sample showing A of 40 or more is effective. [formula] It is believed that a sample showing A of 60 or more is effective.
substance,measurement,value
hyaluronic acid [HA],Effect A,22
same,Effect B,35
